Measurements: ChEMBL document CHEMBL4715849, “Recent Progress in the Discovery of Antifungal Agents Targeting the Cell Wall” (J Med Chem, 2020)
In brackets after ≈: the same amount, converted by molar mass.

Legend:
[1] = test system: Aspergillus flavus; experiment: Antifungal activity against Aspergillus flavus MF383 incubated for 24 hrs by liquid microdilution assay; format: functional
[2] = Inhibition of Candida albicans MY1055 1,3-beta-D-glucan synthase assessed as reduction in glucan synthesis by measuring decrease in incorporation of [14C]glucose preincubated for 30 mins followed by pulse-labelling with [U-14C]D-glucose for 30 mins by autoradiography
[3] = test system: Nakaseomyces glabratus; experiment: Antifungal activity against Candida glabrata MY1381 incubated for 24 hrs by liquid microdilution assay; format: functional
[4] = test system: Candida albicans; experiment: Antifungal activity against Candida albicans MY1055 incubated for 24 hrs by liquid microdilution assay; format: functional
[5] = test system: Candida albicans; experiment: Antifungal activity against Candida albicans MY2301 incubated for 24 hrs by liquid microdilution assay; format: functional
[6] = test system: Cryptococcus neoformans; experiment: Antifungal activity against Cryptococcus neoformans MY2061 incubated for 24 hrs by liquid microdilution assay; format: functional
[7] = test system: Nakaseomyces glabratus; experiment: Antifungal activity against Candida glabrata CLY574 incubated for 24 hrs by liquid microdilution assay; format: functional
[8] = test system: Cryptococcus neoformans; experiment: Antifungal activity against Cryptococcus neoformans MY2062 incubated for 24 hrs by liquid microdilution assay; format: functional
[9] = test system: Meyerozyma guilliermondii; experiment: Antifungal activity against Candida guilliermondii CLY308 incubated for 24 hrs by liquid microdilution assay; format: functional
[10] = test system: Aspergillus fumigatus; experiment: Antifungal activity against Aspergillus fumigatus MF5668 assessed as inhibition of normal hyphal growth; format: functional; settings: time 24 hrs, read-out: MEC
[11] = test system: Meyerozyma guilliermondii; experiment: Antifungal activity against Candida guilliermondii CLY346 incubated for 24 hrs by liquid microdilution assay; format: functional
[12] = test system: Candida albicans; experiment: Antifungal activity against Candida albicans; format: functional

MIC [1]: ≤ 0.03 µg/mL | IC50 [2]: 0.05 µg/mL (≈ 0.0705 µM) | MIC [3]: 1 µg/mL (≈ 1.41 µM) | MIC [4]: 0.25 µg/mL (≈ 0.353 µM) | MIC [5]: 0.5 µg/mL (≈ 0.705 µM) | MIC [6]: > 64 µg/mL | MIC [7]: 1 µg/mL (≈ 1.41 µM) | MIC [8]: > 64 µg/mL | MIC [9]: 1 µg/mL (≈ 1.41 µM) | MIC [11]: 2 µg/mL (≈ 2.82 µM) | MIC [12]: 0.2 µg/mL (≈ 0.282 µM)
SMILES: CC(=O)O[C@@H]1C[C@]23C4=CC[C@@]5(C)[C@H](C(=O)O)[C@@](C)([C@H](C)C(C)C)CC[C@]5(C)[C@H]4CC[C@H]2[C@@](C)(COC3O)[C@H]1O[C@@H]1O[C@H](CO)[C@@H](O)[C@H](O)[C@H]1O (some centres not stated) [ENFUMAFUNGIN]
minimal effective concentration [10]: ≤ 0.03 µg/mL
